According to patent US10307411B2, “Use of cotinine in treating or preventing neurogenesis deficits and enhancing neurogenesis” (Department of Veterans Affairs, priority 2014, dated 2019):

Assays:
VEGF = experiment: Western blot of VEGF in hippocampus of mice subjected to repetitive forced swim stress; type: in vivo
Protocol: Mice pretreated with 5 mg/kg of cotinine (Cot 5) or vehicle (Veh) were exposed to repetitive 6-min forced swim (FS) daily for 6 days (a) to under continuous treatment. Following testing, mice were euthanized and the levels of VEGF and β-tubulin in the hippocampus were analyzed by Western blot. The plots represent VEGF immunoreactivity (IR) values in the hippocampus of mice. […] Mice pretreated with 5 mg/kg of cotinine (Cot 5) or vehicle (Veh) were exposed to repetitive 6-min forced swim (FS) daily for 6 days (a) to under continuous treatment or controls, not subjected to the forced swim (NES). Following resting, mice were euthanized and the levels of VEGF and β-tubulin in the hippocampus were analyzed by Western blot. The plots represent VEGF immunoreactivity (IR) values in the hippocampus of mice. […] The Western blot analysis investigated the expression of VEGF (FS mice: n=8-1O/group; NES mice: n=4-5/group). […] Brain tissues were then disrupted by sonication in cold lyses buffer (Cell Signaling Technology, Danver, Mass., USA) containing a complete protease inhibitor cocktail (Roche Molecular Biochemicals). After sonication, brain extracts were incubated on ice for 30 min and centrifuged at 20,000×g for 30 min at 4° C. Protein concentrations of supernatants were measured using the Bio-Rad protein assay (Bio-Rad, Hercules, Calif., USA). Equal amounts of protein were separated by gradient (4-20%), SOS-PAGE, then transferred to nitrocellulose membranes (BA83 0.2 μM; Bio-Rad). The membranes were blocked in TBS with 0.1% Tween 20 (TBST) containing 5% dry skim milk for 1 h. Membranes were incubated with primary antibodies in TBST overnight at 4° C. and with secondary antibodies for 1 h at room temperature (RT) in a blocking buffer. […] Images were acquired using an Odyssey Infrared Imaging System (Ll-COR Biosciences) and analyzed using the NIH Image J software. To analyze the group and treatment effects, differences between group means in the behavioral analyses were assessed using two-way analysis of variance (ANOVA) and post hoc Tukey test. […]

Chinese hamster ovary = conditions: 0-1000 μg/ml; cited from earlier work
aromatase = target: T1, aromatase (Homo sapiens, UniProt P11511); conditions: in vitro; cited from earlier work
T1 sequence (P11511 1-503): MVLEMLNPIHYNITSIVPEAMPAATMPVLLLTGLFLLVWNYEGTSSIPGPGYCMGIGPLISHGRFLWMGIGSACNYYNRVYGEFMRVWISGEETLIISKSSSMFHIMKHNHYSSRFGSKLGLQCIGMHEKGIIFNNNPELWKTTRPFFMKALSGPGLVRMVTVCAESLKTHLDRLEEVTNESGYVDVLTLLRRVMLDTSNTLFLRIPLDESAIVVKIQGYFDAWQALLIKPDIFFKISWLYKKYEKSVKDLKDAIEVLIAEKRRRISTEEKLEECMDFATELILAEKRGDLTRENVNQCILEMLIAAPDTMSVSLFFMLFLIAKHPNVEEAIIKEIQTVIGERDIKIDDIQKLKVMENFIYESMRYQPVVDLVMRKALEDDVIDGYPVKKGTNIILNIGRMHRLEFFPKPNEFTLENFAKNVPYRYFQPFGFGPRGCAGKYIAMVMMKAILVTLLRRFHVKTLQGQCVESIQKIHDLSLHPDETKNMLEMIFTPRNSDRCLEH

17-ketosteroid reductase = conditions: in vitro; cited from earlier work

CN1C(=O)CC[C@H]1c1cccnc1 [cotinine, (5S)-1-methyl-5-(3-pyridyl) pyrrolidin-2-one]
VEGF protein expression in the hippocampus vs NES mice (VEGF; FS mice, cotinine 5 mg/kg, compared with non-stressed mice): not significantly different | VEGF protein expression in the hippocampus vs vehicle-treated FS mice (VEGF; FS mice, cotinine 5 mg/kg, normalized to β-tubulin): significantly higher levels of VEGF expression | VEGF protein expression in the absence of stress (VEGF; non-stressed mice, cotinine vs vehicle, t=0.2910, p=0.7795): no changes in VEGF expression | genotoxic effects, sister chromatid exchange (SCE) (Chinese hamster ovary): no genotoxic effects | inhibition of aromatase (aromatase): inhibiting | inhibition of 17-ketosteroid reductase (17-ketosteroid reductase): inhibiting
